Measured values from patent publication US20160362408A1 (Bayer Pharma Aktiengesellschaft, priority 2013, published 2016).

Each compound was assayed against T1, recombinant guanylate cyclase reporter cell line (Rattus norvegicus, UniProt P19686+P20595) (assay: Effect on a recombinant guanylate cyclase reporter cell line). Conditions: MEC = minimum effective concentration; in some cases mean values for individual determinations.
T1 construct: expressed in transfected cells
T1 sequence (P19686 1-690): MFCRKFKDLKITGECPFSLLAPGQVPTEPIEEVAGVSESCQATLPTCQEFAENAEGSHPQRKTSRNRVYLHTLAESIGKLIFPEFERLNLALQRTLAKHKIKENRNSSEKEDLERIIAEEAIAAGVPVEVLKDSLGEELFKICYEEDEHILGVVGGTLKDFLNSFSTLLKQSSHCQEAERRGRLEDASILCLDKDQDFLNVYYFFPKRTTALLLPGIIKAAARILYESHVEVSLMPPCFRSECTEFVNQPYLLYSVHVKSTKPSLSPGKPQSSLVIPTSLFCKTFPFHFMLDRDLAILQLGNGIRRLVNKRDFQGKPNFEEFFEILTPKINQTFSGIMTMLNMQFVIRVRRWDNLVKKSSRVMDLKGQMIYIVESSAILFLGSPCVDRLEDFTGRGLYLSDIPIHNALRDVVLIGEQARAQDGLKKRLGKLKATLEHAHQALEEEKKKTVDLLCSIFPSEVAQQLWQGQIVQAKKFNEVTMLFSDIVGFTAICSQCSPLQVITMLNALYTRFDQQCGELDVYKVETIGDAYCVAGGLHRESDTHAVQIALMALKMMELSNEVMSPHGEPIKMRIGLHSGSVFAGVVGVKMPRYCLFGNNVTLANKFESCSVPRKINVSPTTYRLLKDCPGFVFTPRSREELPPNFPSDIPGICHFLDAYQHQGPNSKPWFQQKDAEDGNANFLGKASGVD
T1 sequence (P20595 1-619): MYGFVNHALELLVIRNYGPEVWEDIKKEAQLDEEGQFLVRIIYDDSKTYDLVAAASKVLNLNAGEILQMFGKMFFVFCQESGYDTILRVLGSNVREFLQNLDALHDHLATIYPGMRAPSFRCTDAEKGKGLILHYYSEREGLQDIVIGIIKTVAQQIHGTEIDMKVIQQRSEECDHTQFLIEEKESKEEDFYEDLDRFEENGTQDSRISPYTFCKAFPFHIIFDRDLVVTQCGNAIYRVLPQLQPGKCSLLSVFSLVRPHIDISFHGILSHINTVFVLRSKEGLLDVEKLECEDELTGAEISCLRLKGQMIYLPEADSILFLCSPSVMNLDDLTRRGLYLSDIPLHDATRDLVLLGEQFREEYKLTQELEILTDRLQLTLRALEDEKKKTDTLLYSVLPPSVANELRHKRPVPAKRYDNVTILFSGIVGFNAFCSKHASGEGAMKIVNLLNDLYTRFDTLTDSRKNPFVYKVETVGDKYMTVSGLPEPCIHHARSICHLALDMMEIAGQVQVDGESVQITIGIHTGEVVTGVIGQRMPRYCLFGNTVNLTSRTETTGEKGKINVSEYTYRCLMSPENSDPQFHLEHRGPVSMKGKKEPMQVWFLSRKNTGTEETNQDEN
Assay type: cell-based
Procedure: B-2. Effect on a Recombinant Guanylate Cyclase Reporter Cell Line
The cellular action of the compounds of the invention is determined using a recombinant guanylate cyclase reporter cell line, as described in F. Wunder et al., Anal. Biochem. 339, 104-112 (2005).
Representative MEC values (MEC=minimum effective concentration) for the compounds of the invention are shown in the table below (in some cases as mean values for individual determinations): […]

Row | MEC [µM] | Structure (SMILES)
1 | 1.0 | Cc1nc2c(OCc3c(F)cccc3F)cccn2c1C(=O)Nc1ccc(N2CCNCC2)c(F)c1 [Example 106, 8-[(2,6-difluorobenzyl)oxy]-N-[3-fluoro-4-(piperazin-1-yl)phenyl]-2-methylimidazo[1,2-a]pyridine-3-carboxamide]
2 | 1.0 | Cc1nc2c(OCc3c(F)cccc3F)cccn2c1C(=O)Nc1nn(C)c2ccc(C(F)(F)F)cc12 [Example 103, 8-[(2,6-Difluorobenzyl)oxy]-2-methyl-N-[1-methyl-5-(trifluoromethyl)-1H-indazol-3-yl]imidazo[1,2-a]pyridine-3-carboxamide]
3 | 10 | Cc1nc2c(OCc3c(F)cccc3F)cccn2c1C(=O)Nc1cnn(CCN2CCC(O)CC2)c1 [Example 130, 8-[(2,6-difluorobenzyl)oxy]-N-{1-[2-(4-hydroxypiperidin-1-yl)ethyl]-1H-pyrazol-4-yl}-2-methylimidazol[1,2-a] pyridine-3-carboxamide]
4 | 0.1 | Cc1nc2c(OCc3c(F)cccc3F)cccn2c1C(=O)Nc1cnn2ccccc12 [Example 1, 8-[(2,6-Difluorobenzyl)oxy]-2-methyl-N-(pyrazolo[1,5-a]pyridin-3-yl)imidazo[1,2-a]pyridine-3-carboxamide]
5 | 0.3 | Cc1cc(OCc2c(F)cccc2F)c2nc(C)c(C(=O)Nc3cnn(CCO)c3)n2c1 [Example 86]
6 | 1.0 | Cc1n[nH]c(C)c1NC(=O)c1c(C)nc2c(OCc3c(F)cccc3F)cc(N3CCCC3)cn12 [Example 50, 8-[(2,6-difluorobenzyl)oxy]-N-(3,5-dimethyl-1H-pyrazol-4-yl)-2-methyl-6-(pyrrolidin-1-yl)imidazo[1,2-a]pyridine-3-carboxamide]
7 | 0.3 | Cc1nc2c(OCc3c(F)cccc3F)cccn2c1C(=O)Nc1cccnc1 [Example 95]
8 | 0.65 | Cc1nc2c(OCc3c(F)cccc3F)cccn2c1C(=O)Nc1c(C(C)(C)O)n[nH]c1C [Example 88]
9 | 0.1 | Cc1nc2c(OCc3c(F)cccc3F)cccn2c1C(=O)Nc1ccc2c(c1)OCC(=O)N2 [Example 6]
10 | 0.1 | Cc1nc2c(OCc3c(F)cccc3F)cccn2c1C(=O)Nc1ccnc2cc(Cl)ccc12 [Example 77, N-(7-Chloroquinolin-4-yl)-8-[(2,6-difluorobenzyl)oxy]-2-methylimidazo[1,2-a]pyridine-3-carboxamide]
11 | 1.0 | Cc1nc2c(OCc3c(F)cccc3F)cccn2c1C(=O)Nc1cnn(CCN2CCOCC2)c1 [Example 132, 8-[(2,6-difluorobenzyl)oxy]-2-methyl-N-{1-[2-(morpholin-4-yl)ethyl]-1H-pyrazol-4-yl} imidazo[1,2-a]pyridine-3-carboxamide]
12 | 1.65 | Cc1nc2c(OCc3c(F)cccc3F)cccn2c1C(=O)Nc1ccnc2cc(C(F)(F)F)ccc12 [Example 100]
13 | 1.0 | Cc1nn(C)c(N2CCOCC2)c1NC(=O)c1c(C)nc2c(OCc3c(F)cccc3F)cccn12 [Example 34, 8-[(2,6-difluorobenzyl)oxy]-N-[1,3-dimethyl-5-(morpholin-4-yl)-1H-pyrazol-4-yl]-2-methylimidazo[1,2-a]pyridine-3-carboxamide]
14 | 1.0 | Cc1nc2c(OCC3CCCCC3)cccn2c1C(=O)Nc1cccc(CCC(=O)O)c1 [Example 150, 3-[3-({[8-(Cyclohexylmethoxy)-2-methylimidazo[1,2-a]pyridin-3-yl]carbonyl}amino)phenyl]propanoic acid]
15 | 3.0 | Cc1nc2c(OCc3c(F)cccc3F)cccn2c1C(=O)Nc1nnc(CCOC(C)C)s1 [Example 83]
16 | 0.1 | Cc1nn(CCO)c(C)c1NC(=O)c1c(C)nc2c(OCc3c(F)cccc3F)cc(Cl)cn12 [Example 42, 6-chloro-8-[(2,6-difluorobenzyl)oxy]-N-[1-(2-hydroxyethyl)-3,5-dimethyl-1H-pyrazol-4-yl]-2-methylimidazo[1,2-a]pyridine-3-carboxamide]
17 | 0.3 | Cc1cc2c(NC(=O)c3c(C)nc4c(OCc5c(F)cccc5F)cccn34)cccc2nn1 [Example 70]

Row | MEC [µM] | Structure (SMILES)
18 | 0.5 | Cc1nc2c(OCc3c(F)cccc3F)cccn2c1C(=O)Nc1c(C(F)(F)F)nn(CCO)c1C [Example 116, 8-[(2,6-Difluorobenzyl)oxy]-N-[1-(2-hydroxyethyl)-5-methyl-3-(trifluoromethyl)-1H-pyrazol-4-yl]-2-methylimidazo[1,2-a]pyridine-3-carboxamide]
19 | 1.0 | Cc1cc(N2CCNCC2)ccc1NC(=O)c1c(C)nc2c(OCc3c(F)cccc3F)cc(Cl)cn12 [Example 108, 6-chloro-8-[(2,6-difluorobenzyl)oxy]-2-methyl-N-[2-methyl-4-(piperazin-1-yl)phenyl]imidazo[1,2-a]pyridine-3-carboxamide]
20 | 1.0 | Cc1nc2c(OCc3c(F)cccc3F)cccn2c1C(=O)Nc1cnn(C)c1 [Example 119, 8-[(2,6-difluorobenzyl)oxy]-2-methyl-N-(1-methyl-1H-pyrazol-4-yl)imidazo[1,2-a]pyridine-3-carboxamide]
21 | 0.3 | COc1ccc(C)c(NC(=O)c2c(C)nc3c(OCc4c(F)cccc4F)cccn23)c1 [Example 16]
22 | 1.0 | Cc1nc2c(OCc3c(F)cccc3F)cccn2c1C(=O)Nc1ccc(NCCO)cc1 [Example 98]
23 | 0.3 | Cc1nn(CCO)c(C)c1NC(=O)c1c(C)nc2c(OCc3c(F)cccc3F)cccn12 [Example 37, 8-[(2,6-difluorobenzyl)oxy]-N-[1-(2-hydroxyethyl)-3,5-dimethyl-1H-pyrazol-4-yl]-2-methylimidazo[1,2-a]pyridine-3-carboxamide]
24 | 0.3 | Cc1cccc(C)c1NC(=O)c1c(C)nc2c(OCc3c(F)cccc3F)cccn12 [Example 58, 8-[(2,6-difluorobenzyl)oxy]-N-(2,6-dimethylphenyl)-2-methylimidazo[1,2-a]pyridine-3-carboxamide]
25 | 3.0 | Cc1nc2c(OCc3c(F)cccc3F)cccn2c1C(=O)Nc1nnc(C2CC2)s1 [Example 84]
26 | 0.3 | Cc1ccc(F)c(NC(=O)c2c(C)nc3c(OCc4c(F)cccc4F)cccn23)c1 [Example 9]
27 | 0.3 | Cc1nc2c(OCc3c(F)cccc3F)cccn2c1C(=O)Nc1ccccc1 [Example 11]
28 | 1.0 | Cc1cc(NC(=O)c2c(C)nc3c(OCc4c(F)cccc4F)cccn23)cc(C)n1 [Example 101]
29 | 1.0 | Cc1nn(CC(F)(F)F)cc1NC(=O)c1c(C)nc2c(OCc3c(F)cccc3F)cccn12 [Example 33, 8-[(2,6-difluorobenzyl)oxy]-2-methyl-N-[3-methyl-1-(2,2,2-trifluoroethyl)-1H-pyrazol-4-yl]imidazo[1,2-a]pyridine-3-carboxamide]
30 | 3.0 | Cc1nc2c(OCc3c(F)cccc3F)cccn2c1C(=O)Nc1cnn(Cc2cccc(F)c2)c1 [Example 35, 8-[(2,6-difluorobenzyl)oxy]-N-[1-(3-fluorobenzyl)-1H-pyrazol-4-yl]-2-methylimidazo[1,2-a]pyridine-3-carboxamide]
31 | 3.0 | Cc1nc2c(OCc3c(F)cccc3F)cccn2c1C(=O)Nc1cc(C)n(C)n1 [Example 122, 8-[(2,6-difluorobenzyl)oxy]-N-(1,5-dimethyl-1H-pyrazol-3-yl)-2-methylimidazo[1,2-a] pyridine-3-carboxamide]
32 | 1.0 | Cc1nc2c(OCc3c(F)cccc3F)cccn2c1C(=O)Nc1ccc(Cl)c2ccccc12 [Example 62]
33 | 0.03 | Cc1nn(CC(F)(F)F)c(C)c1NC(=O)c1c(C)nc2c(OCc3c(F)cccc3F)cc(Cl)cn12 [Example 43, 6-chloro-8-[(2,6-difluorobenzyl)oxy]-N-[3,5-dimethyl-1-(2,2,2-trifluoroethyl)-1H-pyrazol-4-yl]-2-methylimidazo[1,2-a]pyridine-3-carboxamide]
34 | 0.1 | Cc1nc2c(OCc3c(F)cccc3F)cc(Cl)cn2c1C(=O)Nc1ccnc2ccc(F)cc12 [Example 92]
